Source: US20250092039A1, “GLUTARIMIDE-CONTAINING PAN-KRAS-MUTANT DEGRADER COMPOUNDS AND USES THEREOF” (Tiger Biotherapeutics Inc., priority 2022, published 2025)

Tests used:
KRAS-G12V/RAF1 = KRAS-G12V/RAF1 (Homo sapiens (Human), UniProt P01116, G12V); assay: KRAS/RAF1 binding inhibition assay (AlphaScreen)
How it was run: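 IC50 comes from variable-slope nonlinear fits of % inhibition (relative to DMSO) against inhibitor concentration. The AlphaScreen signal tracks the interaction of GppNHp-bound KRAS G12V with the RAF1 RBD after 60 min at 4° C with compound in 2% DMSO final.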

SW620 cells = assay: 3D cell growth inhibition of SW620 cells carrying endogenous KRAS G12V mutation (CellTiter-Glo 3D, GI50); type: cell-based; conditions: Homo sapiens, SW-620, 144 h; SW620 cells, 6 days; read-out: SW620 3D cell growth GI50
How it was run: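 […], compound exposure lasted 6 days at 37° C, added the day after plating from DMSO stocks over a concentration range. Cells: SW620, KRAS G12V, 3D culture.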

KRAS G12V = KRAS G12V (Homo sapiens (Human), UniProt P01116, G12V); assay: KRAS G12V degradation in SW620 cells (Western blot, DC50); type: cell-based; conditions: 24 hours
Chain of KRAS G12V (P01116-2 other isoform, or with tags, fused parts or gaps G12V): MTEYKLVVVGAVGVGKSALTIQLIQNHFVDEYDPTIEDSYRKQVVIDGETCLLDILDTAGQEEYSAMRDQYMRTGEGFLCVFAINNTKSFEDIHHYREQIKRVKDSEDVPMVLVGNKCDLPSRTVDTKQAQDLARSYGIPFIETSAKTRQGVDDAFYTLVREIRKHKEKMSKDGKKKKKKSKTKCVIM
How it was run: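 KRAS levels were quantified by fluorescent Western blot as percent of the DMSO control after 24 h of compound exposure at 37° C in homozygous KRAS G12V SW620 cells. A four-parameter variable-slope fit of the dose-response gave the half-maximal degradation concentration.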

Chain of KRAS-G12V/RAF1 (P01116-2 other isoform, or with tags, fused parts or gaps G12V): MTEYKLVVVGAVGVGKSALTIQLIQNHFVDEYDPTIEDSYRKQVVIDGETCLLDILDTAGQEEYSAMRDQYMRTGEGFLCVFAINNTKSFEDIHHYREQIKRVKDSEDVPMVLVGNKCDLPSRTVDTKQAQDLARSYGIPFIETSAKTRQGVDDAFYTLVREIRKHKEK

Structure (SMILES) | IC50 (KRAS-G12V/RAF1) | GI50 (SW620 cells) | DC50 (KRAS G12V)
CCc1c(F)ccc2cc(O)cc(-c3ncc4c(N5CCC[C@@](C)(O)C5)nc(OCC5(CN6CCC(N7CCC8(CC7)CN(c7ccc9c(c7)CN(C7CCC(=O)NC7=O)C9=O)C8)CC6)CC5)nc4c3F)c12 (stereo partly drawn) [Compound 151, 3-(5-(7-(1-((1-(((7-(8-ethyl-7-fluoro-3-hydroxynaphthalen-1-yl)-8-fluoro-4-((R)-3-hydroxy-3-methylpiperidin-1-yl)pyrido[4,3-d]pyrimidin-2-yl)oxy)methyl)cyclopropyl)methyl)piperidin-4-yl)-2,7-diazaspiro[3.5]nonan-2-yl)-1-oxoisoindolin-2-yl)piperidine-2,6-dione] | 20 to 200 nM | < 10 nM | < 1 nM
CCc1c(F)ccc2cc(O)cc(-c3ncc4c(N5CCC[C@@](C)(O)C5)nc(OCC5(CN6CC(N7CCC8(CC7)CN(c7ccc9c(c7)CN(C7CCC(=O)NC7=O)C9=O)C8)C6)CC5)nc4c3F)c12 (stereo partly drawn) [Compound 152, 3-(5-(7-(1-((1-(((7-(8-ethyl-7-fluoro-3-hydroxynaphthalen-1-yl)-8-fluoro-4-((R)-3-hydroxy-3-methylpiperidin-1-yl)pyrido[4,3-d]pyrimidin-2-yl)oxy)methyl)cyclopropyl)methyl)azetidin-3-yl)-2,7-diazaspiro[3.5]nonan-2-yl)-1-oxoisoindolin-2-yl)piperidine-2,6-dione] | 20 to 200 nM | < 10 nM | < 1 nM
CCc1c(F)ccc2cc(O)cc(-c3ncc4c(N5CCC[C@@](C)(O)C5)nc(OCC5(CN6CC(N7CCC8(CCN(c9ccc%10c(c9)CN(C9CCC(=O)NC9=O)C%10=O)CC8)CC7)C6)CC5)nc4c3F)c12 (stereo partly drawn) [Compound 153, 3-(5-(9-(1-((1-(((7-(8-ethyl-7-fluoro-3-hydroxynaphthalen-1-yl)-8-fluoro-4-((R)-3-hydroxy-3-methylpiperidin-1-yl)pyrido[4,3-d]pyrimidin-2-yl)oxy)methyl)cyclopropyl)methyl)azetidin-3-yl)-3,9-diazaspiro[5.5]undecan-3-yl)-1-oxoisoindolin-2-yl)piperidine-2,6-dione] | 20 to 200 nM | < 10 nM | < 1 nM
CCc1c(F)ccc2cc(O)cc(-c3ncc4c(N5CCC[C@@](C)(O)C5)nc(OCC5(CN6CCC(N7CC8(CN(c9ccc%10c(c9)CN(C9CCC(=O)NC9=O)C%10=O)C8)C7)CC6)CC5)nc4c3F)c12 (stereo partly drawn) [Compound 154, 3-(5-(6-(1-((1-(((7-(8-ethyl-7-fluoro-3-hydroxynaphthalen-1-yl)-8-fluoro-4-((R)-3-hydroxy-3-methylpiperidin-1-yl)pyrido[4,3-d]pyrimidin-2-yl)oxy)methyl)cyclopropyl)methyl)piperidin-4-yl)-2,6-diazaspiro[3.3]heptan-2-yl)-1-oxoisoindolin-2-yl)piperidine-2,6-dione] | < 20 nM | < 10 nM | < 1 nM
CCc1c(F)ccc2cc(O)cc(-c3ncc4c(N5CCC[C@@](C)(O)C5)nc(OCC5(CN6CCC7(CC6)CN(C6CCN(c8ccc9c(c8)CN(C8CCC(=O)NC8=O)C9=O)CC6)C7)CC5)nc4c3F)c12 (stereo partly drawn) [Compound 155, 3-(5-(4-(7-((1-(((7-(8-ethyl-7-fluoro-3-hydroxynaphthalen-1-yl)-8-fluoro-4-((R)-3-hydroxy-3-methylpiperidin-1-yl)pyrido[4,3-d]pyrimidin-2-yl)oxy)methyl)cyclopropyl)methyl)-2,7-diazaspiro[3.5]nonan-2-yl)piperidin-1-yl)-1-oxoisoindolin-2-yl)piperidine-2,6-dione] | < 20 nM | < 10 nM | < 1 nM
CCc1c(F)ccc2cc(O)cc(-c3ncc4c(N5CCC[C@@](C)(O)C5)nc(OCC5(CN6CCN(C7CC8(C7)CN(c7ccc9c(c7)CN(C7CCC(=O)NC7=O)C9=O)C8)CC6)CC5)nc4c3F)c12 (stereo partly drawn) [Compound 161, 3-(5-(6-(4-((1-(((7-(8-ethyl-7-fluoro-3-hydroxynaphthalen-1-yl)-8-fluoro-4-((R)-3-hydroxy-3-methylpiperidin-1-yl)pyrido[4,3-d]pyrimidin-2-yl)oxy)methyl)cyclopropyl)methyl)piperazin-1-yl)-2-azaspiro[3.3]heptan-2-yl)-1-oxoisoindolin-2-yl)piperidine-2,6-dione] | 20 to 200 nM | < 10 nM | < 1 nM
CCc1c(F)ccc2cc(O)cc(-c3ncc4c(N5CCC[C@@](C)(O)C5)nc(OCC5(CN6CCN(C7CC8(CCN(c9ccc%10c(c9)CN(C9CCC(=O)NC9=O)C%10=O)CC8)C7)CC6)CC5)nc4c3F)c12 (stereo partly drawn) [Compound 162, 3-[5-[2-[4-[[1-[[7-(8-ethyl-7-fluoro-3-hydroxy-1-naphthyl)-8-fluoro-4-[(3R)-3-hydroxy-3-methyl-1-piperidyl]pyrido[4,3-d]pyrimidin-2-yl]oxymethyl]cyclopropyl]methyl]piperazin-1-yl]-7-azaspiro[3.5]nonan-7-yl]-1-oxo-isoindolin-2-yl]piperidine-2,6-dione] | 20 to 200 nM | < 10 nM | < 1 nM
CCc1c(F)ccc2cc(O)cc(-c3ncc4c(N5CCC[C@@](C)(O)C5)nc(OCC5(CN6CCC7(CC6)CN(C6CN(c8ccc9c(c8)CN(C8CCC(=O)NC8=O)C9=O)C6)C7)CC5)nc4c3F)c12 (stereo partly drawn) [Compound 163, 3-[5-[3-[7-[[1-[[7-(8-ethyl-7-fluoro-3-hydroxy-1-naphthyl)-8-fluoro-4-[(3R)-3-hydroxy-3-methyl-1-piperidyl]pyrido[4,3-d]pyrimidin-2-yl]oxymethyl]cyclopropyl]methyl]-2,7-diazaspiro[3.5]nonan-2-yl]azetidin-1-yl]-1-oxo-isoindolin-2-yl]piperidine-2,6-dione] | < 20 nM | < 10 nM | < 1 nM
CCc1c(F)ccc2cc(O)cc(-c3ncc4c(N5CCC[C@@](C)(O)C5)nc(OCC5(CN6CCC7(CC6)CCN(C6CN(c8ccc9c(c8)CN(C8CCC(=O)NC8=O)C9=O)C6)CC7)CC5)nc4c3F)c12 (stereo partly drawn) [Compound 164, 3-(5-(3-(9-((1-(((7-(8-ethyl-7-fluoro-3-hydroxynaphthalen-1-yl)-8-fluoro-4-((R)-3-hydroxy-3-methylpiperidin-1-yl)pyrido[4,3-d]pyrimidin-2-yl)oxy)methyl)cyclopropyl)methyl)-3,9-diazaspiro[5.5]undecan-3-yl)azetidin-1-yl)-1-oxoisoindolin-2-yl)piperidine-2,6-dione] | 20 to 200 nM | < 10 nM | 1 to 10 nM
CCc1c(F)ccc2cc(O)cc(-c3ncc4c(N5CCC[C@@](C)(O)C5)nc(OCC5(CN6CC7(CCN(C8CCN(c9ccc%10c(c9)CN(C9CCC(=O)NC9=O)C%10=O)CC8)CC7)C6)CC5)nc4c3F)c12 (stereo partly drawn) [Compound 166, 3-(5-(4-(2-((1-(((7-(8-ethyl-7-fluoro-3-hydroxynaphthalen-1-yl)-8-fluoro-4-((R)-3-hydroxy-3-methylpiperidin-1-yl)pyrido[4,3-d]pyrimidin-2-yl)oxy)methyl)cyclopropyl)methyl)-2,7-diazaspiro[3.5]nonan-7-yl)piperidin-1-yl)-1-oxoisoindolin-2-yl)piperidine-2,6-dione] | < 20 nM | > 100 nM | 1 to 10 nM
CCc1cccc2cc(O)cc(-c3ncc4c(N5CCC[C@@](C)(O)C5)nc(OCC5(CN6CC(N7CC(N8CCN(c9ccc%10c(c9)CN([C@H]9CCC(=O)NC9=O)C%10=O)CC8)C7)C6)CC5)nc4c3F)c12 [Compound 168, (S)-3-(5-(4-(1′-((1-(((7-(8-ethyl-3-hydroxynaphthalen-1-yl)-8-fluoro-4-((R)-3-hydroxy-3-methylpiperidin-1-yl)pyrido[4,3-d]pyrimidin-2-yl)oxy)methyl)cyclopropyl)methyl)-[1,3′-biazetidin]-3-yl)piperazin-1-yl)-1-oxoisoindolin-2-yl)piperidine-2,6-dione] | 20 to 200 nM | > 100 nM | 1 to 10 nM
C[C@@]1(O)CCCN(c2nc(OCC3(CN4CC(N5CC(N6CCN(c7ccc8c(c7)CN([C@H]7CCC(=O)NC7=O)C8=O)CC6)C5)C4)CC3)nc3c(F)c(-c4cc(O)cc5ccc(F)c(F)c45)ncc23)C1 [Compound 169, (S)-3-(5-(4-(1′-((1-(((7-(7,8-difluoro-3-hydroxynaphthalen-1-yl)-8-fluoro-4-((R)-3-hydroxy-3-methylpiperidin-1-yl)pyrido[4,3-d]pyrimidin-2-yl)oxy)methyl)cyclopropyl)methyl)-[1,3′-biazetidin]-3-yl)piperazin-1-yl)-1-oxoisoindolin-2-yl)piperidine-2,6-dione] | 20 to 200 nM | > 100 nM | > 100 nM
C[C@@]1(O)CCCN(c2nc(OCC3(CN4CCC5(CC4)CC(N4CCN(c6ccc7c(c6)CN([C@H]6CCC(=O)NC6=O)C7=O)CC4)C5)CC3)nc3c(F)c(-c4cc(O)cc5ccc(F)c(F)c45)ncc23)C1 [Compound 170, (S)-3-(5-(4-(7-((1-(((7-(7,8-difluoro-3-hydroxynaphthalen-1-yl)-8-fluoro-4-((R)-3-hydroxy-3-methylpiperidin-1-yl)pyrido[4,3-d]pyrimidin-2-yl)oxy)methyl)cyclopropyl)methyl)-7-azaspiro[3.5]nonan-2-yl)piperazin-1-yl)-1-oxoisoindolin-2-yl)piperidine-2,6-dione] | 20 to 200 nM | < 10 nM | 1 to 10 nM
